Marks after values point to notes of the source that are not given here.
What was measured:
[1] = test system: co-culture of Caco-2 and HT29-MTX cell lines; assay: Intestinal permeability assay, Caco-2/HT29-MTX co-culture, LC-MS quantification; assay type: in vitro ADME, human; conditions: for calculated concentration, basolateral side / calculated concentration, apical side: OMWW B1 sample, mean ± SD (n = 3); for calculated concentration, apical side: apical (100% reference); for Mean Permeation Rate (±SD) at 240 min: polyphenol within OMWW B1 sample (500 µg/mL), apical to basolateral
Description: The instrumental setup consisted of an Agilent (Santa Clara, CA, USA) 1290 UHPLC system, which included a binary pump, a column oven maintained at 40 °C, and a temperature-controlled autosampler. This system was connected to a Sciex (Concord, ON, Canada) QTRAP 6500+ mass spectrometer operating as a triple quadrupole, equipped with an IonDrive™ Turbo V source performing electrospray ionization (ESI). […] The instrument control and data acquisition were performed using Sciex Analyst® version 1.7 software and MultiquantTM software version 3.0.3. Data analysis was carried out using Microsoft 365® Excel software (Albuquerque, NM, USA) and GraphPad (San Diego, CA, USA) Prism version 9.0.2. The mass spectrometry selected reaction monitoring (SRM) method was operated in negative ion mode. For each compound, declustering potential (DP), collision energy (CE), and collision exit potential (CxP) were optimized, and three transitions were considered for analysis. One transition was used for quantification (Q), while the other two were used as qualifiers (q). The transition list and additional operational parameters are already reported. A stock solution of each standard compound, including the internal standard, was prepared in MeOH at a concentration of 100 μg/mL and stored at −20 °C. Calibration curves were freshly prepared in pure LC-MS water. […] [34]. The experiments were performed 21 days after seeding the cells in 12 well plates. During this period, the transepithelial electrical resistance (TEER) was monitored to evaluate the cell monolayer integrity. On the last day, cell monolayers were pre-equilibrated with fresh HBSS (pH 7.4) at 37 °C for 30 min. […] At the same time, the TEER was evaluated, using an EVOM Epithelial Volthometer Instrument equipped with a chopstick electrode (World Precision Instruments, Sarasota, FL, USA). After each sampling time, the basolateral side was replaced with the same HBSS volume. Samples were conserved at −20 °C for subsequent LC/ESI-MS analysis, according to Section 2.5.

[2] = test system: co-culture of Caco-2 and HT29-MTX cell lines; design: method as in PMID 37446813; conditions: tyrosol alone, same model; cited from earlier work
[3] = Superoxide radical scavenging assay (NBT reduction); assay type: biochemical; conditions: mean ± SD (n = 3)
Description: The superoxide radical (O2^−) scavenging capacity was spectrophotometrically evaluated, in accordance with Gomes et al.. Absorbance was read at 560 nm for 6 min at 37 °C in a Synergy HT Microplate Reader. The results were expressed as IC50, of the reduction in NBT to a purple-colored diformazan by the reaction with O2.

[4] = Hypochlorous acid scavenging assay (DHR oxidation); assay type: biochemical; conditions: mean ± SD (n = 3)
Description: The uptake capacity of hypochlorous acid (HOCl^−) was determined by monitoring the effect of OMWW extracts in the HOCl^− induced oxidation of dihydrorhodamine (DHR) to rhodamine, as reported by Gomes et al.. The fluorescence was read at 37 °C for 5 min, at wavelengths of 485 ± 20 nm and 528 ± 20 nm. The results were expressed as the inhibition, in IC50, of HOCl^− induced DHR oxidation.

[5] = ABTS radical cation scavenging assay; assay type: biochemical; conditions: mean ± standard error (n = 3); 5 min, rt
Description: The ABTS free radical scavenging activity of samples was evaluated by radical cation colorimetric assay in accordance with Cuffaro et al.. Briefly, the ABTS solution (7 mM of aqueous solution of ABTS with 2.45 mM potassium persulfate in a 1:1 ratio) was incubated for 12 h in the dark at rt. Then, the solution was diluted with EtOH to obtain an absorbance of 0.7 at 750 nm. A total of 10 μL of sample solution (1 mg/mL to 0.01 mg/mL) in EtOH was mixed with 180 μL of ABTS solution and the solution was incubated for 5 min at rt. The final absorbance was read at 734 nm in a Molecular Devices […] (200-1000 nm) UV/Vis spectrophotometer. The % scavenging ability was calculated as follows:% scavenging ability = ([…] = ABTS solution absorbance Abssample = ABTS solution containing the test compound absorbance. […] Trolox® was employed as positive control and was treated under the same conditions as the samples. All experiments were performed in triplicate.

[6] = DPPH free radical scavenging assay; assay type: biochemical; conditions: mean ± standard error (n = 3); 45 min, rt
Description: The antiradical activity of OMWW and EVOO samples was assessed by the DPPH free radical scavenging, as reported by Cuffaro et al.. Briefly, 100 μL of DPPH MeOH solution (40.0 μg/mL) was added to 100 μL of the sample solution in MeOH (1 mg/mL to 0.01 mg/mL), and the resulting solution was incubated for 45 min at rt and in the dark. The absorbance was read at 517 nm in a Molecular Devices […] (200-1000 nm) UV/Vis spectrophotometer. Trolox® was the positive control and was treated under the same conditions as the samples. The percent of antioxidant activity (%AA) was calculated according to the following equation:%AA = ([…] = DPPH solution absorbance Abssample = DPPH solution containing the test compound absorbance […] All experiments were performed in triplicate.

SMILES | calculated concentration, basolateral side ([1]; 30 min) | calculated concentration, basolateral side ([1]; 60 min) | calculated concentration, basolateral side ([1]; 120 min) | calculated concentration, basolateral side ([1]; 180 min) | calculated concentration, basolateral side ([1]; 240 min) | calculated concentration, apical side [1] | Mean Permeation Rate (±SD) at 240 min ([1]; 240 min) [%] | O2^− scavenging IC50 [3] | HOCl^− scavenging IC50 [4] | Mean Permeation Rate (±SD) at 240 min ([1]; 240 min, listed as caffeic acid) [%] | Mean Permeation Rate (±SD) at 240 min ([1]; 240 min, listed as hydroxytyrosol) [%] | ABTS IC50 [5] | DPPH IC50 [6] | permeation (release) at 240 min [2] [%]
O.Oc1cc(O)c2c(c1)O[C@H](c1ccc(O)c(O)c1)[C@@H](O)C2 [Catechin] |  |  |  |  |  |  |  | 18.01 ± 0.34 ^c,d μg/mL | 0.20 ± 0.01 ^b μg/mL |  |  |  |  | 
O=C(O)/C=C/c1ccc(O)c(O)c1 [Caffeic acid] | 0,31 ± 0,10 ng/mL | 0,40 ± 0,25 ng/mL | 1,29 ± 0,31 ng/mL | 2,00 ± 0,01 ng/mL | 1,89 ± 0,42 ng/mL | 7,31 ± 0,74 ng/mL | 26 ± 3 |  |  | 26 |  |  |  | 
OCCc1ccc(O)c(O)c1 [Hydroxytyrosol] | 7,42 ± 5,35 ng/mL | 9,12 ± 5,78 ng/mL | 15,75 ± 5,02 ng/mL | 19,40 ± 2,55 ng/mL | 15,20 ± 1,98 ng/mL | 45,30 ± 0,85 ng/mL | 34 ± 5 |  |  |  | 34 |  |  | 
O=C(O)c1cc(O)c(O)c(O)c1 [Gallic acid] |  |  |  |  |  |  |  | 6.34 ± 0.21 ^d μg/mL | 2.60 ± 0.05 ^b μg/mL |  |  |  |  | 

Further lines, with some results ahead:

calculated concentration, basolateral side ([1]; 30 min) | calculated concentration, basolateral side ([1]; 60 min) | calculated concentration, basolateral side ([1]; 120 min) | calculated concentration, basolateral side ([1]; 180 min) | calculated concentration, basolateral side ([1]; 240 min) | calculated concentration, apical side [1] | Mean Permeation Rate (±SD) at 240 min ([1]; 240 min) [%] | O2^− scavenging IC50 [3] | HOCl^− scavenging IC50 [4] | Mean Permeation Rate (±SD) at 240 min ([1]; 240 min, listed as caffeic acid) [%] | Mean Permeation Rate (±SD) at 240 min ([1]; 240 min, listed as hydroxytyrosol) [%] | ABTS IC50 [5] | DPPH IC50 [6] | SMILES | permeation (release) at 240 min [2] [%]
155,50 ± 6,36 ng/mL | 224,50 ± 21,92 ng/mL | 259,50 ± 47,38 ng/mL | 256,50 ± 13,44 ng/mL | 314,00 ± 33,94 ng/mL | 587,50 ± 234,05 ng/mL | 59 ± 29 |  |  |  |  |  |  | OCCc1ccc(O)cc1 [Tyrosol] | 78
 |  |  |  |  |  |  |  |  |  |  | 0.003 ± 0.0004 ^i mg/mL | 0.007 ± 0.001 ^h mg/mL | Cc1c(C)c2c(c(C)c1O)CCC(C)(C(=O)O)O2 (stereo not drawn) [Trolox] | 

— publication PMC11507932, “Comparative Analysis on Polyphenolic Composition of Different Olive Mill Wastewater and Related Extra Virgin Olive Oil Extracts and Evaluation of Nutraceutical Properties by Cell-Based Studies” (Foods, 2024)
